Patent US12077503B2, “Substituted cyclic amides and their use as herbicides” (FMC CORPORATION, priority 2015, dated 2024)

How the values were obtained:
Assay type in all cases: in vivo
Kochia (Kochia scoparia) [1] = assay: Test A preemergence; details: Preemergence; for Plant response rating, Kochia: 125 g ai/ha, visual injury after approximately 10 d, 0 to 100 scale where 0 is no effect and 100 is complete control; for Kochia plant response rating (0 to 100 scale, 0 is no effect, 100 is complete control): 500 g ai/ha, visual injury approx. 10 d
Summary of the method: (§1)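 In a loam soil and sand blend, planted seeds got a preemergence directed soil spray, and young plants at the one- to two-leaf stage, 2–10 cm high, got a postemergence application; ~10 d greenhouse hold; injury rated visually, 0 = none, 100 = complete control.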

[2] = tested on: pigweed (Amaranthus retroflexus); assay: Test A preemergence; details: Preemergence; for Plant response rating, Pigweed: 125 g ai/ha, visual injury after approximately 10 d, 0 to 100 scale where 0 is no effect and 100 is complete control; for Pigweed plant response rating (0 to 100 scale, 0 is no effect, 100 is complete control): 500 g ai/ha, visual injury approx. 10 d
[3] = tested on: giant foxtail (Setaria faberii); assay: Test A preemergence; details: Preemergence; for Plant response rating, Foxtail, Giant: 125 g ai/ha, visual injury after approximately 10 d, 0 to 100 scale where 0 is no effect and 100 is complete control; for Foxtail, Giant plant response rating (0 to 100 scale, 0 is no effect, 100 is complete control): 500 g ai/ha, visual injury approx. 10 d
Summary of the method: as §1

[4] = tested on: ragweed (common ragweed, Ambrosia elatior); assay: Test A preemergence; details: Preemergence; for Plant response rating, Ragweed: 125 g ai/ha, visual injury after approximately 10 d, 0 to 100 scale where 0 is no effect and 100 is complete control; for Ragweed plant response rating (0 to 100 scale, 0 is no effect, 100 is complete control): 500 g ai/ha, visual injury approx. 10 d
Summary of the method: as §1

[5] = tested on: ryegrass, Italian (Italian ryegrass, Lolium multiflorum); assay: Test A preemergence; details: Preemergence; for Plant response rating, Ryegrass, Italian: 125 g ai/ha, visual injury after approximately 10 d, 0 to 100 scale where 0 is no effect and 100 is complete control; for Ryegrass, Italian plant response rating (0 to 100 scale, 0 is no effect, 100 is complete control): 500 g ai/ha, visual injury approx. 10 d
Summary of the method: as §1

[6] = tested on: barnyardgrass (Echinochloa crus-galli); assay: Test A preemergence; details: Preemergence; for Plant response rating, Barnyardgrass: 125 g ai/ha, visual injury after approximately 10 d, 0 to 100 scale where 0 is no effect and 100 is complete control; for Barnyardgrass plant response rating (0 to 100 scale, 0 is no effect, 100 is complete control): 500 g ai/ha, visual injury approx. 10 d
Summary of the method: as §1

[7] = tested on: wheat (Triticum aestivum); assay: Test A postemergence; details: for Wheat plant response rating: 125 g ai/ha, postemergence, visual injury rating on 0 to 100 scale (0 no effect, 100 complete control), approx. 10 d; for Plant response rating, Wheat: Postemergence, 500 g ai/ha, 0 to 100 scale where 0 is no effect and 100 is complete control
Summary of the method: as §1

Kochia (Kochia scoparia) [8] = assay: Test A postemergence; details: for Kochia plant response rating: 125 g ai/ha, postemergence, visual injury rating on 0 to 100 scale (0 no effect, 100 complete control), approx. 10 d; for Plant response rating, Kochia: Postemergence, 500 g ai/ha, 0 to 100 scale where 0 is no effect and 100 is complete control
Summary of the method: as §1

[9] = tested on: pigweed (Amaranthus retroflexus); assay: Test A postemergence; details: for Pigweed plant response rating: 125 g ai/ha, postemergence, visual injury rating on 0 to 100 scale (0 no effect, 100 complete control), approx. 10 d; for Plant response rating, Pigweed: Postemergence, 500 g ai/ha, 0 to 100 scale where 0 is no effect and 100 is complete control
Summary of the method: as §1

[10] = tested on: Galium (catchweed bedstraw, Galium aparine); assay: Test A postemergence; details: for Galium plant response rating: 125 g ai/ha, postemergence, visual injury rating on 0 to 100 scale (0 no effect, 100 complete control), approx. 10 d; for Plant response rating, Galium: Postemergence, 500 g ai/ha, 0 to 100 scale where 0 is no effect and 100 is complete control
Summary of the method: as §1

[11] = tested on: giant foxtail (Setaria faberii); assay: Test A postemergence; details: for Foxtail, Giant plant response rating: 125 g ai/ha, postemergence, visual injury rating on 0 to 100 scale (0 no effect, 100 complete control), approx. 10 d; for Plant response rating, Foxtail, Giant: Postemergence, 500 g ai/ha, 0 to 100 scale where 0 is no effect and 100 is complete control
Summary of the method: as §1

[12] = tested on: ragweed (common ragweed, Ambrosia elatior); assay: Test A postemergence; details: for Ragweed plant response rating: 125 g ai/ha, postemergence, visual injury rating on 0 to 100 scale (0 no effect, 100 complete control), approx. 10 d; for Plant response rating, Ragweed: Postemergence, 500 g ai/ha, 0 to 100 scale where 0 is no effect and 100 is complete control
Summary of the method: as §1

[13] = tested on: ryegrass, Italian (Italian ryegrass, Lolium multiflorum); assay: Test A postemergence; details: for Ryegrass, Italian plant response rating: 125 g ai/ha, postemergence, visual injury rating on 0 to 100 scale (0 no effect, 100 complete control), approx. 10 d; for Plant response rating, Ryegrass, Italian: Postemergence, 500 g ai/ha, 0 to 100 scale where 0 is no effect and 100 is complete control
Summary of the method: as §1

[14] = tested on: barnyardgrass (Echinochloa crus-galli); assay: Test A postemergence; details: for Barnyardgrass plant response rating: 125 g ai/ha, postemergence, visual injury rating on 0 to 100 scale (0 no effect, 100 complete control), approx. 10 d; for Plant response rating, Barnyardgrass: Postemergence, 500 g ai/ha, 0 to 100 scale where 0 is no effect and 100 is complete control
Summary of the method: as §1

corn (Zea mays) = assay: Test A postemergence; details: for Corn plant response rating: 125 g ai/ha, postemergence, visual injury rating on 0 to 100 scale (0 no effect, 100 complete control), approx. 10 d; for Plant response rating, Corn: Postemergence, 500 g ai/ha, 0 to 100 scale where 0 is no effect and 100 is complete control
Summary of the method: as §1

[15] = tested on: blackgrass (Alopecurus myosuroides); assay: Test A postemergence; details: for Blackgrass plant response rating: 125 g ai/ha, postemergence, visual injury rating on 0 to 100 scale (0 no effect, 100 complete control), approx. 10 d; for Plant response rating, Blackgrass: Postemergence, 500 g ai/ha, 0 to 100 scale where 0 is no effect and 100 is complete control
Summary of the method: as §1

[16] = tested on: sedge, umbrella (small-flower umbrella sedge, Cyperus difformis); assay: Test B flooded paddy test; details: Flood, 250 g ai/ha; 0 to 100 scale where 0 is no effect and 100 is complete control; 13 to 15 d
Summary of the method: (§2)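 Plants at 2-leaf stage flooded to 3 cm above soil, with compounds applied directly to paddy water and that depth maintained. Plants kept in greenhouse 13–15 d. Visual rating versus controls on a 0 (no effect) to 100 (complete control) scale.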

rice (Oryra sativa) = assay: Test B flooded paddy test; details: Flood, 250 g ai/ha; 0 to 100 scale where 0 is no effect and 100 is complete control; 13 to 15 d
Summary of the method: as §2

[17] = tested on: barnyardgrass (Echinochloa crus-galli); assay: Test B flooded paddy test; details: Flood, 250 g ai/ha; 0 to 100 scale where 0 is no effect and 100 is complete control; 13 to 15 d
Summary of the method: as §2

[18] = tested on: ducksalad (Heteranthera limosa); assay: Test B flooded paddy test; details: Flood, 250 g ai/ha; 0 to 100 scale where 0 is no effect and 100 is complete control; 13 to 15 d
Summary of the method: as §2

Row | Structure (SMILES) | Plant response rating, Kochia (Kochia (Kochia scoparia) [1]) | Kochia plant response rating (0 to 100 scale, 0 is no effect, 100 is complete control) (Kochia (Kochia scoparia) [1]) | Plant response rating, Pigweed [2] | Pigweed plant response rating (0 to 100 scale, 0 is no effect, 100 is complete control) [2] | Plant response rating, Foxtail, Giant [3] | Foxtail, Giant plant response rating (0 to 100 scale, 0 is no effect, 100 is complete control) [3] | Plant response rating, Ragweed [4] | Ragweed plant response rating (0 to 100 scale, 0 is no effect, 100 is complete control) [4] | Plant response rating, Ryegrass, Italian [5] | Ryegrass, Italian plant response rating (0 to 100 scale, 0 is no effect, 100 is complete control) [5] | Plant response rating, Barnyardgrass [6] | Barnyardgrass plant response rating (0 to 100 scale, 0 is no effect, 100 is complete control) [6] | Wheat plant response rating [7] | Plant response rating, Wheat [7] | Kochia plant response rating (Kochia (Kochia scoparia) [8]) | Plant response rating, Kochia (Kochia (Kochia scoparia) [8]) | Pigweed plant response rating [9] | Plant response rating, Pigweed [9] | Galium plant response rating [10] | Plant response rating, Galium [10] | further results
1 | O=C1NCC(c2cc(F)cc(Cl)c2)C1C(=O)Nc1ccccc1F (stereo not drawn) [Compound 491] | 0 | 20 | 0 | 0 | 90 | 90 | 0 | 0 | 20 | 30 | 90 | 90 | 30 | 60 | 0 | 20 | 0 | 20 | 0 | 30 | Foxtail, Giant plant response rating [11]: 80; Plant response rating, Foxtail, Giant [11]: 80; Ragweed plant response rating [12]: 0; Plant response rating, Ragweed [12]: 20; Ryegrass, Italian plant response rating [13]: 0; Plant response rating, Ryegrass, Italian [13]: 30; Barnyardgrass plant response rating [14]: 90; Plant response rating, Barnyardgrass [14]: 80; Corn plant response rating (corn (Zea mays)): 60; Plant response rating, Corn (corn (Zea mays)): 90; Blackgrass plant response rating [15]: 20; Plant response rating, Blackgrass [15]: 50; Plant response rating, Sedge, Umbrella [16]: 0; Plant response rating, Rice (rice (Oryra sativa)): 0; Plant response rating, Barnyardgrass [17]: 0; Plant response rating, Ducksalad [18]: 40
2 | O=C1NCC(c2cccc(F)c2F)C1C(=O)Nc1ccc(F)cc1F (stereo not drawn) [Compound 495] | 20 | 30 | 0 | 20 | 90 | 90 | 0 | 0 | 0 | 20 | 30 | 90 | 0 | 20 | 30 | 30 | 0 | 0 | 0 | 0 | Foxtail, Giant plant response rating [11]: 20; Plant response rating, Foxtail, Giant [11]: 70; Ragweed plant response rating [12]: 0; Plant response rating, Ragweed [12]: 0; Ryegrass, Italian plant response rating [13]: 0; Plant response rating, Ryegrass, Italian [13]: 20; Barnyardgrass plant response rating [14]: 20; Plant response rating, Barnyardgrass [14]: 80; Corn plant response rating (corn (Zea mays)): 0; Plant response rating, Corn (corn (Zea mays)): 30; Blackgrass plant response rating [15]: 0; Plant response rating, Blackgrass [15]: 20; Plant response rating, Sedge, Umbrella [16]: 0; Plant response rating, Rice (rice (Oryra sativa)): 0; Plant response rating, Barnyardgrass [17]: 35; Plant response rating, Ducksalad [18]: 75
3 | COCc1cccc(C2CNC(=O)C2C(=O)Nc2ccccc2F)c1 (stereo not drawn) [Compound 496] | 0 | 40 | 0 | 0 | 30 | 90 | 0 | 0 | 0 | 0 | 60 | 90 | 0 | 0 | 0 | 0 | 0 | 0 | 0 | 30 | Foxtail, Giant plant response rating [11]: 20; Plant response rating, Foxtail, Giant [11]: 50; Ragweed plant response rating [12]: 0; Plant response rating, Ragweed [12]: 0; Ryegrass, Italian plant response rating [13]: 0; Plant response rating, Ryegrass, Italian [13]: 0; Barnyardgrass plant response rating [14]: 60; Plant response rating, Barnyardgrass [14]: 80; Corn plant response rating (corn (Zea mays)): 0; Plant response rating, Corn (corn (Zea mays)): 0; Blackgrass plant response rating [15]: 0; Plant response rating, Blackgrass [15]: 0; Plant response rating, Sedge, Umbrella [16]: 0; Plant response rating, Rice (rice (Oryra sativa)): 0; Plant response rating, Barnyardgrass [17]: 60; Plant response rating, Ducksalad [18]: 85
